Results taken from PubChem BioAssay AID226 (DTP/NCI, 2004).
“And” between values parts separate entries of the source, which are not always exact repeats. Equal values may be shown once. Inconclusive results and toxic doses are left out. The calls were made as follows: active = survival T/C of 150% or more; inactive = T/C below 125% in these data.

Tested on: B6C3F1 mice, intracerebral ependymoblastoma, median survival T/C
Assay: NCI In Vivo Anticancer Drug Screen. Data for tumor model Ependymoblastoma (intracerebral) in B6C3F1 mice
Settings: endpoint: median survival time, higher = longer survival
Method: The antitumor activity of compounds was measured in mice bearing transplantable tumors. Survival or tumor size were measured and the results are expressed as the measurement made in the treated group (T) divided by the measurement made in the vehicle treated control group (C). The tumor model used in this assay is Ependymoblastoma (intracerebral) in B6C3F1 mice

[1] = dose: 4.0 mg/kg/injection, schedule: Q01DX005 (ip), vehicle: Klucel (hydroxypropylcellulose) (HPC)
[2] = dose: 8.0 mg/kg/injection, schedule: Q01DX005 (ip), vehicle: saline with Tween-80
[3] = dose: 16.0 mg/kg/injection, schedule: Q01DX005 (ip), vehicle: Klucel (hydroxypropylcellulose) (HPC)
[4] = dose: 16.0 mg/kg/injection, schedule: Q01DX005 (ip), vehicle: saline with Tween-80
[5] = dose: 64.0 mg/kg/injection, schedule: Q01DX005 (ip), vehicle: Klucel (hydroxypropylcellulose) (HPC)
[6] = dose: 64.0 mg/kg/injection, schedule: Q01DX005 (ip), vehicle: saline with Tween-80
[7] = dose: 256.0 mg/kg/injection, schedule: Q01DX005 (ip), vehicle: Klucel (hydroxypropylcellulose) (HPC)
[8] = dose: 8.0 mg/kg/injection, schedule: Q01DX005 (ip), vehicle: Klucel (hydroxypropylcellulose) (HPC)
[9] = dose: 10.0 mg/kg/injection, schedule: Q01DX005 (ip), vehicle: Klucel (hydroxypropylcellulose) (HPC)
[10] = dose: 20.0 mg/kg/injection, schedule: Q01DX005 (ip), vehicle: Klucel (hydroxypropylcellulose) (HPC)

Measured: T/C

C[C@@H](CN1CC(=O)NC(=O)C1)N1CC(=O)NC(=O)C1
inactive: [1] 112 % of control and 120 % of control | dose: 4.0 mg/kg/injection, schedule: Q01DX005 (ip), vehicle: saline with Tween-80 116 % of control and 117 % of control | dose: 4.0 mg/kg/injection, schedule: Q01DX005 (ip), vehicle: water 102 % of control | [2] 108 % of control | [3] 108 % of control and 111 % of control | [4] 114 % of control and 118 % of control | dose: 16.0 mg/kg/injection, schedule: Q01DX005 (ip), vehicle: water 105 % of control | dose: 32.0 mg/kg/injection, schedule: Q01DX005 (ip), vehicle: saline 102 % of control and 114 % of control | dose: 32.0 mg/kg/injection, schedule: Q01DX005 (oral), vehicle: saline 109 % of control | [5] 107 % of control and 115 % of control | [6] 114 % of control | dose: 64.0 mg/kg/injection, schedule: Q01DX005 (ip), vehicle: saline 123 % of control | dose: 64.0 mg/kg/injection, schedule: Q01DX005 (ip), vehicle: water 108 % of control | dose: 128.0 mg/kg/injection, schedule: Q01DX005 (ip), vehicle: saline 120 % of control | dose: 128.0 mg/kg/injection, schedule: Q#A X002 (ip), vehicle: saline 103 % of control | dose: 256.0 mg/kg/injection, schedule: Q01DX001 (ip), vehicle: saline 107 % of control and 111 % of control and 113 % of control | dose: 256.0 mg/kg/injection, schedule: Q01DX001 (oral), vehicle: saline 109 % of control and 123 % of control and 124 % of control | [7] 112 % of control and 122 % of control | dose: 256.0 mg/kg/injection, schedule: Q01DX005 (ip), vehicle: saline 120 % of control and 122 % of control | dose: 256.0 mg/kg/injection, schedule: Q#A X002 (ip), vehicle: saline 113 % of control | dose: 512.0 mg/kg/injection, schedule: Q01DX001 (ip), vehicle: saline 109 % of control and 118 % of control | dose: 512.0 mg/kg/injection, schedule: Q01DX001 (oral), vehicle: saline 119 % of control and 121 % of control | dose: 512.0 mg/kg/injection, schedule: Q#A X002 (ip), vehicle: saline 121 % of control | dose: 1024.0 mg/kg/injection, schedule: Q01DX001 (ip), vehicle: saline 114 % of control and 121 % of control | dose: 1024.0 mg/kg/injection, schedule: Q01DX001 (oral), vehicle: saline 119 % of control | dose: 1024.0 mg/kg/injection, schedule: Q#A X002 (ip), vehicle: saline 121 % of control | dose: 2048.0 mg/kg/injection, schedule: Q01DX001 (oral), vehicle: saline 102 % of control and 121 % of control

CN(C)C(=O)N(CCCl)N=O
inactive: dose: 5.0 mg/kg/injection, schedule: Q01DX001 (ip), vehicle: DMSO 106 % of control | dose: 8.3 mg/kg/injection, schedule: Q01DX001 (ip), vehicle: DMSO 112 % of control
active: dose: 12.5 mg/kg/injection, schedule: Q01DX001 (ip), vehicle: water 188 % of control | dose: 23.0 mg/kg/injection, schedule: Q01DX001 (ip), vehicle: DMSO 366 % of control | dose: 25.0 mg/kg/injection, schedule: Q01DX001 (ip), vehicle: water 332 % of control | dose: 38.4 mg/kg/injection, schedule: Q01DX001 (ip), vehicle: DMSO 365 % of control

O=C(O)CCCc1ccc(N(CCCl)CCCl)cc1
inactive: dose: 0.5 mg/kg/injection, schedule: Q01DX005 (ip), vehicle: Klucel (hydroxypropylcellulose) (HPC) 114 % of control | dose: 1.0 mg/kg/injection, schedule: Q01DX005 (ip), vehicle: Klucel (hydroxypropylcellulose) (HPC) 114 % of control | dose: 1.0 mg/kg/injection, schedule: Q01DX005 (ip), vehicle: saline with Tween-80 120 % of control | dose: 2.0 mg/kg/injection, schedule: Q01DX001 (ip), vehicle: Klucel (hydroxypropylcellulose) (HPC) 103 % of control and 104 % of control (2×) | dose: 2.0 mg/kg/injection, schedule: Q01DX005 (ip), vehicle: Klucel (hydroxypropylcellulose) (HPC) 113 % of control | dose: 4.0 mg/kg/injection, schedule: Q01DX001 (ip), vehicle: Klucel (hydroxypropylcellulose) (HPC) 97 % of control and 104 % of control and 105 % of control | [1] 105 % of control | dose: 8.0 mg/kg/injection, schedule: Q01DX001 (ip), vehicle: Klucel (hydroxypropylcellulose) (HPC) 100 % of control and 101 % of control and 108 % of control | [8] 113 % of control | dose: 16.0 mg/kg/injection, schedule: Q01DX001 (ip), vehicle: Klucel (hydroxypropylcellulose) (HPC) 104 % of control and 108 % of control and 110 % of control | dose: 32.0 mg/kg/injection, schedule: Q01DX001 (ip), vehicle: Klucel (hydroxypropylcellulose) (HPC) 114 % of control and 117 % of control and 121 % of control
active: [2] 153 % of control | [4] 180 % of control

CC(=O)O[C@H]1C(=O)[C@@]2(C)[C@H]([C@H](OC(=O)c3ccccc3)[C@]3(O)C[C@H](OC(=O)[C@H](O)[C@@H](NC(=O)c4ccccc4)c4ccccc4)C(C)=C1C3(C)C)[C@]1(OC(C)=O)CO[C@@H]1C[C@@H]2O
inactive: dose: 2.5 mg/kg/injection, schedule: Q01DX005 (ip), vehicle: Klucel (hydroxypropylcellulose) (HPC) 107 % of control | dose: 5.0 mg/kg/injection, schedule: Q01DX005 (ip), vehicle: Klucel (hydroxypropylcellulose) (HPC) 101 % of control | [9] 91 % of control and 106 % of control | [10] 91 % of control

CCCCCCC1CC1C(=O)NCCCCCN=C(N)N (stereo not drawn)
inactive: [9] 96 % of control | [10] 102 % of control | dose: 40.0 mg/kg/injection, schedule: Q01DX005 (ip), vehicle: Klucel (hydroxypropylcellulose) (HPC) 101 % of control

CCC(=O)O[C@H]1CC[C@H]2[C@@H]3CC[C@H]4CC(=O)[C@H](C)C[C@]4(C)[C@H]3CC[C@]12C
inactive: [8] 95 % of control and 102 % of control | [2] 98 % of control and 108 % of control | [3] 90 % of control and 101 % of control | [4] 95 % of control and 96 % of control | dose: 32.0 mg/kg/injection, schedule: Q01DX005 (ip), vehicle: Klucel (hydroxypropylcellulose) (HPC) 97 % of control and 99 % of control | dose: 32.0 mg/kg/injection, schedule: Q01DX005 (ip), vehicle: saline with Tween-80 103 % of control and 107 % of control | [5] 95 % of control and 101 % of control | [6] 98 % of control and 111 % of control | dose: 128.0 mg/kg/injection, schedule: Q01DX005 (ip), vehicle: Klucel (hydroxypropylcellulose) (HPC) 98 % of control and 87 % of control | dose: 128.0 mg/kg/injection, schedule: Q01DX005 (ip), vehicle: saline with Tween-80 106 % of control and 108 % of control | [7] 93 % of control and 87 % of control | dose: 256.0 mg/kg/injection, schedule: Q01DX005 (ip), vehicle: saline with Tween-80 97 % of control and 113 % of control | dose: 512.0 mg/kg/injection, schedule: Q01DX005 (ip), vehicle: Klucel (hydroxypropylcellulose) (HPC) 87 % of control | dose: 512.0 mg/kg/injection, schedule: Q01DX005 (ip), vehicle: saline with Tween-80 97 % of control and 101 % of control

CS(C)=O
inactive: dose: 500.0 mg/kg/injection, schedule: Q01DX005 (ip), vehicle: water 103 % of control | dose: 1000.0 mg/kg/injection, schedule: Q01DX005 (ip), vehicle: saline 98 % of control | dose: 1000.0 mg/kg/injection, schedule: Q01DX005 (ip), vehicle: water 97 % of control | dose: 2000.0 mg/kg/injection, schedule: Q01DX001 (ip), vehicle: saline 96 % of control and 98 % of control and 100 % of control | dose: 2000.0 mg/kg/injection, schedule: Q01DX005 (ip), vehicle: saline 109 % of control | dose: 2000.0 mg/kg/injection, schedule: Q01DX005 (ip), vehicle: water 103 % of control | dose: 2.0 grams/kg/injection, schedule: Q01DX001 (ip), vehicle: saline 102 % of control | dose: 4000.0 mg/kg/injection, schedule: Q01DX001 (ip), vehicle: saline 91 % of control and 95 % of control and 103 % of control | dose: 4000.0 mg/kg/injection, schedule: Q01DX005 (ip), vehicle: saline 103 % of control | dose: 4000.0 mg/kg/injection, schedule: Q01DX005 (ip), vehicle: water 105 % of control | dose: 4.0 grams/kg/injection, schedule: Q01DX001 (ip), vehicle: saline 95 % of control | dose: 8000.0 mg/kg/injection, schedule: Q01DX001 (ip), vehicle: saline 101 % of control (2×) and 107 % of control | dose: 8000.0 mg/kg/injection, schedule: Q01DX005 (ip), vehicle: saline 103 % of control | dose: 8000.0 mg/kg/injection, schedule: Q01DX005 (ip), vehicle: water 98 % of control | dose: 8.0 grams/kg/injection, schedule: Q01DX001 (ip), vehicle: saline 99 % of control | dose: 16000.0 mg/kg/injection, schedule: Q01DX001 (ip), vehicle: saline 93 % of control
